Marks after values point to notes of the source that are not given here.
How the values were obtained:
[1] = tested on: postmenopausal women with atrophic vaginitis; assay: Vaginal health composite score (investigator rating), Example 3; assay type: in vivo; conditions: each treatment group (25 or 10 µg E2); Week 0 (baseline); scale 0-3
Protocol: Efficacy was measured with composite scores of vaginal symptoms (dryness, soreness, and irritation) and vaginal health (secretions, epithelial integrity, surface thickness, and pH). Vaginal and urethral cytology analyses were also performed, and the vaginal maturation value was determined. Safety assessments included endometrial biopsies. […] All vaginal tablets were identical in appearance. Patients inserted 1 tablet daily for 14 days. Thereafter, patients inserted 1 tablet twice per week (Sunday and Thursday) for the remainder of the trial. Patients were to insert the tablets at the same time each day (preferably at bedtime). Patients were evaluated for efficacy and safety at Week - 4 (screening), Week 0 (baseline), and Weeks 2, 7, and 12. […] Differences within and between treatment groups were analyzed using an analysis of variance (ANOVA). […] Efficacy was measured with composite scores of vaginal symptoms (dryness, soreness, and irritation) and vaginal health (secretions, epithelial integrity, surface thickness, and pH). Vaginal and urethral cytology analyses were also performed, and the vaginal maturation value was determined. […] Patients were evaluated for efficacy and safety at Week - 4 (screening), Week 0 (baseline), and Weeks 2, 7, and 12. […] Differences within and between treatment groups were analyzed using an analysis of variance (ANOVA).

[2] = tested on: superficial urethral cells; assay: Urethral cytology, percentage of superficial cells, Example 3; assay type: in vivo, postmenopausal women
Protocol: Efficacy was measured with composite scores of vaginal symptoms (dryness, soreness, and irritation) and vaginal health (secretions, epithelial integrity, surface thickness, and pH). Vaginal and urethral cytology analyses were also performed, and the vaginal maturation value was determined. Safety assessments included endometrial biopsies.
All vaginal tablets were identical in appearance. Patients inserted 1 tablet daily for 14 days. Thereafter, patients inserted 1 tablet twice per week (Sunday and Thursday) for the remainder of the trial. Patients were to insert the tablets at the same time each day (preferably at bedtime). Patients were evaluated for efficacy and safety at Week - 4 (screening), Week 0 (baseline), and Weeks 2, 7, and 12.
Vaginal and urethral cell samples were harvested and analyzed by independent cytologists to determine the percentages of parabasal, intermediate, and superficial cells. Maturation values were calculated according to the following equation: maturation value = 1.0 × [superficial cells, %] + 0.5 × [intermediate cells, %] [formula] Endometrial biopsies were performed at the end of the study in patients with intact uteri. The number of patients with abnormal biopsies was compared between treatment groups.

C[C@]12CC[C@@H]3c4ccc(O)cc4CC[C@H]3[C@@H]1CC[C@@H]2O [E2, 17β-estradiol]
vaginal health composite score [1]: approximately 1.7 | percentage of superficial urethral cells, Mean ([2]; 10 µg E2, Week 0): 2.5% | percentage of superficial urethral cells, Mean ([2]; 10 µg E2, Week 2): 16.7% | percentage of superficial urethral cells, mean Change from baseline ([2]; 10 µg E2, Week 2): 14.1^c % | percentage of superficial urethral cells, Mean ([2]; 10 µg E2, Week 7): 13.5% | percentage of superficial urethral cells, mean Change from baseline ([2]; 10 µg E2, Week 7): 10.7% | percentage of superficial urethral cells, Mean ([2]; 10 µg E2, Week 12): 9.5% | percentage of superficial urethral cells, mean Change from baseline ([2]; 10 µg E2, Week 12): 6.8% | percentage of superficial urethral cells, Mean ([2]; 25 µg E2, Week 0): 3.2% | percentage of superficial urethral cells, Mean ([2]; 25 µg E2, Week 2): 21.9% | percentage of superficial urethral cells, mean Change from baseline ([2]; 25 µg E2, Week 2): 19.2^a,b % | percentage of superficial urethral cells, Mean ([2]; 25 µg E2, Week 7): 17.6% | percentage of superficial urethral cells, mean Change from baseline ([2]; 25 µg E2, Week 7): 14.2^d % | percentage of superficial urethral cells, Mean ([2]; 25 µg E2, Week 12): 11.2% | percentage of superficial urethral cells, mean Change from baseline ([2]; 25 µg E2, Week 12): 7.5%

Reference: patent publication EP1343508B1, “USE OF AN OESTROGEN IN THE MANUFACTURE OF A COMPOSITION CONTAINING OESTROGEN FOR THE TREATMENT OF ATROPHIC VAGINITIS” (Novo Nordisk Femcare AG, priority 2000, dated 2002)
